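GI50: concentration for 50% inhibition of growth. TGI marks complete inhibition of growth.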
What was measured:
Assay in all cases: inhibition of tumour cell growth, NCI panel, 384-well format
SK-OV-3 ovarian = system: SK-OV-3 ovarian
HL-60(TB) leukemia = system: HL-60(TB) leukemia
MDA-MB-468 breast = system: MDA-MB-468 breast
SNB-75 CNS = system: SNB-75 CNS
M14 melanoma = system: M14 melanoma
OVCAR-5 ovarian = system: OVCAR-5 ovarian
MALME-3M melanoma = system: MALME-3M melanoma
LOX IMVI melanoma = system: LOX IMVI melanoma
EKVX NSCLC = system: EKVX NSCLC
UACC-257 melanoma = system: UACC-257 melanoma
SF-295 CNS = system: SF-295 CNS
CCRF-CEM leukemia = system: CCRF-CEM leukemia
SW-620 colon = system: SW-620 colon
A549 NSCLC = system: A549 NSCLC
NCI-H226 lung = system: NCI-H226 lung
RPMI-8226 leukemia = system: RPMI-8226 leukemia
HT29 colon = system: HT29 colon
PC-3 prostate = system: PC-3 prostate
SN12C renal = system: SN12C renal
SK-MEL-28 melanoma = system: SK-MEL-28 melanoma
TK-10 renal = system: TK-10 renal
KM12 colon = system: KM12 colon
T-47D breast = system: T-47D breast
COLO 205 colon = system: COLO 205 colon
NCI-H23 lung = system: NCI-H23 lung
HS 578T breast = system: HS 578T breast
HOP-62 NSCLC = system: HOP-62 NSCLC
HOP-92 NSCLC = system: HOP-92 NSCLC
ACHN renal = system: ACHN renal
NCI/ADR-RES ovarian = system: NCI/ADR-RES ovarian
DU-145 prostate = system: DU-145 prostate
UACC-62 melanoma = system: UACC-62 melanoma
NCI-H460 NSCLC = system: NCI-H460 NSCLC
SF-539 CNS = system: SF-539 CNS
A498 renal = system: A498 renal
MDA-MB-435 melanoma = system: MDA-MB-435 melanoma
MCF7 breast = system: MCF7 breast
K-562 leukemia = system: K-562 leukemia
SF-268 CNS = system: SF-268 CNS
SK-MEL-5 melanoma = system: SK-MEL-5 melanoma
NCI-H522 lung = system: NCI-H522 lung
MOLT-4 leukemia = system: MOLT-4 leukemia
NCI-H322M lung = system: NCI-H322M lung
OVCAR-4 ovarian = system: OVCAR-4 ovarian
HCT-15 colon = system: HCT-15 colon
786-0 renal = system: 786-0 renal
SNB-19 CNS = system: SNB-19 CNS
CAKI-1 renal = system: CAKI-1 renal
IGROV1 ovarian = system: IGROV1 ovarian
OVCAR-3 ovarian = system: OVCAR-3 ovarian
RXF 393 renal = system: RXF 393 renal
MDA-MB-231 breast = system: MDA-MB-231 breast
UO-31 renal = system: UO-31 renal
OVCAR-8 ovarian = system: OVCAR-8 ovarian
BT-549 breast = system: BT-549 breast
HCC-2998 colon = system: HCC-2998 colon

With `CC1(C)CN(c2cc(C(F)(F)F)cc3cncn23)CCC12NC(=O)NC2=O` (configuration not stated) the GI50 (SK-OV-3 ovarian) was 40.9 µM, the TGI (SK-OV-3 ovarian) was greater than 100 µM and the GI50 (HL-60(TB) leukemia) was 14.5 µM. For the same compound, the TGI (HL-60(TB) leukemia) was 27.8 µM, the GI50 (MDA-MB-468 breast) was 12.5 µM and the TGI (MDA-MB-468 breast) was 35.2 µM. It also gave a GI50 (SNB-75 CNS) of 42.4 µM, a TGI (SNB-75 CNS) greater than 100 µM and a GI50 (M14 melanoma) of 48.1 µM. It also gave a TGI (M14 melanoma) greater than 100 µM, a GI50 (OVCAR-5 ovarian) of 39.4 µM and a TGI (OVCAR-5 ovarian) greater than 100 µM. It also gave a GI50 (MALME-3M melanoma) of 28.1 µM, a TGI (MALME-3M melanoma) of 88.7 µM and a GI50 (LOX IMVI melanoma) of 32.5 µM. For the same compound, the TGI (LOX IMVI melanoma) was greater than 100 µM, the GI50 (EKVX NSCLC) was 15.1 µM and the TGI (EKVX NSCLC) was 59.7 µM. It also gave a GI50 (UACC-257 melanoma) of 61.3 µM, a TGI (UACC-257 melanoma) greater than 100 µM and a GI50 (SF-295 CNS) of 24.8 µM. It also gave a TGI (SF-295 CNS) of 74.8 µM, a GI50 (CCRF-CEM leukemia) of 12 µM and a TGI (CCRF-CEM leukemia) of 26.7 µM. For the same compound, the GI50 (SW-620 colon) was greater than 100 µM, the TGI (SW-620 colon) was greater than 100 µM and the GI50 (A549 NSCLC) was 35.3 µM. It also gave a TGI (A549 NSCLC) greater than 100 µM, a GI50 (NCI-H226 lung) of 26.6 µM and a TGI (NCI-H226 lung) greater than 100 µM. For the same compound, the GI50 (RPMI-8226 leukemia) was 15.3 µM, the TGI (RPMI-8226 leukemia) was 45.8 µM and the GI50 (HT29 colon) was 46 µM. For the same compound, the TGI (HT29 colon) was greater than 100 µM, the GI50 (PC-3 prostate) was 26.2 µM and the TGI (PC-3 prostate) was 99.2 µM. For the same compound, the GI50 (SN12C renal) was 40.4 µM, the TGI (SN12C renal) was greater than 100 µM and the GI50 (SK-MEL-28 melanoma) was 47.8 µM. The TGI (SK-MEL-28 melanoma) was greater than 100 µM, the GI50 (TK-10 renal) was 35.5 µM and the TGI (TK-10 renal) was greater than 100 µM. The GI50 (KM12 colon) was 36 µM, the TGI (KM12 colon) was greater than 100 µM and the GI50 (T-47D breast) was 29.2 µM. For the same compound, the TGI (T-47D breast) was greater than 100 µM, the GI50 (COLO 205 colon) was 68.9 µM and the TGI (COLO 205 colon) was greater than 100 µM. It also gave a GI50 (NCI-H23 lung) of 30.7 µM, a TGI (NCI-H23 lung) greater than 100 µM and a GI50 (HS 578T breast) of 12.9 µM. The TGI (HS 578T breast) was 35.6 µM, the GI50 (HOP-62 NSCLC) was 28.3 µM and the TGI (HOP-62 NSCLC) was greater than 100 µM. For the same compound, the GI50 (HOP-92 NSCLC) was 26.1 µM, the TGI (HOP-92 NSCLC) was greater than 100 µM and the GI50 (ACHN renal) was 38.2 µM. It also gave a TGI (ACHN renal) greater than 100 µM, a GI50 (NCI/ADR-RES ovarian) greater than 100 µM and a TGI (NCI/ADR-RES ovarian) greater than 100 µM. For the same compound, the GI50 (DU-145 prostate) was 40 µM, the TGI (DU-145 prostate) was greater than 100 µM and the GI50 (UACC-62 melanoma) was 19.2 µM. For the same compound, the TGI (UACC-62 melanoma) was 63.7 µM, the GI50 (NCI-H460 NSCLC) was 38.1 µM and the TGI (NCI-H460 NSCLC) was greater than 100 µM. The GI50 (SF-539 CNS) was 91.7 µM, the TGI (SF-539 CNS) was greater than 100 µM and the GI50 (A498 renal) was 26 µM. The TGI (A498 renal) was greater than 100 µM, the GI50 (MDA-MB-435 melanoma) was 62.2 µM and the TGI (MDA-MB-435 melanoma) was greater than 100 µM. The GI50 (MCF7 breast) was 26 µM, the TGI (MCF7 breast) was 99.6 µM and the GI50 (K-562 leukemia) was 42.6 µM. The TGI (K-562 leukemia) was greater than 100 µM, the GI50 (SF-268 CNS) was 26.9 µM and the TGI (SF-268 CNS) was greater than 100 µM. It also gave a GI50 (SK-MEL-5 melanoma) of 33.5 µM, a TGI (SK-MEL-5 melanoma) of 95.7 µM and a GI50 (NCI-H522 lung) of 54 µM. For the same compound, the TGI (NCI-H522 lung) was greater than 100 µM, the GI50 (MOLT-4 leukemia) was 12.3 µM and the TGI (MOLT-4 leukemia) was 25.1 µM. It also gave a GI50 (NCI-H322M lung) of 57.8 µM, a TGI (NCI-H322M lung) greater than 100 µM and a GI50 (OVCAR-4 ovarian) of 18.8 µM. The TGI (OVCAR-4 ovarian) was 82.6 µM, the GI50 (HCT-15 colon) was 40.6 µM and the TGI (HCT-15 colon) was greater than 100 µM. For the same compound, the GI50 ([…]-0 renal) was 35.1 µM, the TGI (786-0 renal) was greater than 100 µM and the GI50 (SNB-19 CNS) was 55.7 µM. For the same compound, the TGI (SNB-19 CNS) was greater than 100 µM, the GI50 (CAKI-1 renal) was 30.6 µM and the TGI (CAKI-1 renal) was greater than 100 µM. For the same compound, the GI50 (IGROV1 ovarian) was 27.8 µM, the TGI (IGROV1 ovarian) was 75.8 µM and the GI50 (OVCAR-3 ovarian) was 28.4 µM. For the same compound, the TGI (OVCAR-3 ovarian) was greater than 100 µM, the GI50 (RXF 393 renal) was 29.4 µM and the TGI (RXF 393 renal) was greater than 100 µM. The GI50 (MDA-MB-231 breast) was 32.2 µM, the TGI (MDA-MB-231 breast) was greater than 100 µM and the GI50 (UO-31 renal) was 56.8 µM. It also gave a TGI (UO-31 renal) greater than 100 µM, a GI50 (OVCAR-8 ovarian) of 33.5 µM and a TGI (OVCAR-8 ovarian) greater than 100 µM. The GI50 (BT-549 breast) was 19.8 µM, the TGI (BT-549 breast) was greater than 100 µM and the GI50 (HCC-2998 colon) was 29.4 µM. The TGI (HCC-2998 colon) was 73.9 µM.

From PubChem BioAssay (NCI)
